Read-outs that look alike come from different tables or passages of the source.
Columns and labels:
RS4;11 xenograph tumors = test: RS4;11 xenograft model; type: in vivo, SCID mice; settings: SCID mice, i.v. 5 mg/kg at days 1, 3, 5 per week for two weeks, FIG. 4
Description: Cpd. Nos. 7 and 11 were dissolved in 10% PCP [10% PEG400 (Sigma), 3% Cremophor (Sigma), and 87% PBS (Gibco)]. The pH of the drug solutions were checked before use and adjusted with 0.5N NaOH to be between pH 6.5 and 8.0 for IV (intravenous) administration.
RS4;11 cells were maintained at 37° C., 95% air, 5% carbon dioxide in Improved MEM (Richter's Mod.) supplemented with 10% Fetal Bovine Serum, 100 units/ml of penicillin and 100 units/ml of streptomycin (GIBCO™, Invitrogen Corp.) and passaged twice weekly.
Tumor cells for xenografts were harvested with Trypsin (0.05%)-EDTA (0.53 mM) (GIBCO™, Invitrogen Corp.), growth medium added and cells placed on ice. Cells were washed once with 1×PBS (GIBCO™, Invitrogen Corp.) and re-suspended in PBS. After washing in PBS, cells were re-suspended in an ice cold mixture of 1:1 PBS and Matrigel (BD Biosciences, Invitrogen Corp.) for a final Matrigel protein concentration of 5 mg/ml. Cells at 5×10^6 cells in 0.1 ml were injected subcutaneously (s.c.) into the flank region of each mouse using a 25 gauge needle. All tumors were inoculated into SCID mice (strain:236) C.B-17 SCID, Charles River.
The size of tumors growing in the mice was measured in two dimensions using calipers. Tumor volume (mm^3)═(A×B^2)/2 where A and B are the tumor length and width (in mm), respectively. During treatment, tumor volume and body weight were measured three times a week. After the treatment was stopped, tumor volume and body weight was measured at least once a week.
Tumors were not allowed to exceed 10% of the animals total body weight. If an animal had two or more tumors the total weight of all tumors were not allowed to exceed 10% of the animal's total body weight. At the end of the experimental period or when tumor size approached 10% of the total body weight, the animal was euthanized.
Before treatment began, tumors were allowed to grow to 100-200 mm^3 in volume, at which point the blood vessel supplies to the tumor should have been well established. Mice with tumors within acceptable size range were randomized into treatment groups of seven mice. Cpd. Nos. 7 and 11 were given i.v. at 10 mg/kg at days 1,3, and 5 per week for two weeks. The Control group received vehicle alone. Cpd. Nos. 16, 18, 22 and 48 were given i.v. at 5 mg/kg at days 1, 3, and 5 per week for two weeks. The Control group received vehicle alone.
(§1) Representative Compounds of the Disclosure were tested in the RS4;11 and other xenograph models using similar techniques. […] No. 22 in the MDA-MB-231 TNBC model.

MDA-MB-453 = test: WST-8 cell growth inhibition assay, MDA-MB-453; type: cell-based; settings: Homo sapiens, WST-8, Table 6
Description: (§2) Cpd. Nos. 7 and 18 were tested in various triple-negative breast cancer cell lines using the WST-8 cell growth assay.

BRD4 = target: T1, BRD4 (Homo sapiens, UniProt O60885); test: Western blot, degradation of BRD4 in RS4;11 cells; type: cell-based; settings: 2.5 h, as compared to Compound A, FIG. 1
T1 construct: Collected cells were lysed in lysis buffer; endogenous in cells; host or cells: RS4;11 and MOLM-13 leukemia cells
Description: Cells were treated with compounds at the indicated concentrations for 2.5 h and 3 h, respectively, for RS4;11 (see FIG. 1) and MOLM-13 (see FIG. 2) cells. Compound A is ((S)-3-benzyl-6,9-dimethyl-2-((1-methyl-1H-pyrazol-4-yl)ethynyl)-4H,6H-thieno[2,3-e][1,2,4]triazolo[3,4-c][1,4]oxazepine). See Cpd. No. 85 of U.S. Appl. No. 62/295,271.
Collected cells were lysed in lysis buffer [1% CHAPS, 150 mM NaCl, 20 mM Tris-HCl, 1 mM. EDTA, 1 mM EGTA, and COMPLETE proteinase inhibitor (Roche)] for 30 minutes on ice. Protein concentrations were determined using the Bio-Rad Protein Assay Dye reagent. Whole tumor lysates (20 μg) were separated on a 4-20% Novex gels (Invitrogen). The separated proteins were transferred to a PVDF membrane (BIO-RAD) and the PVDF membrane was then blotted with 5% Blotting-Grade Blocker (BIO-RAD) for 1 hour at room temperature. The primary antibodies used were BRD4 rabbit polyclonal antibody [Bethyl Laboratories, Inc, cat #A301] and BRD2 antibody.
The BIO-RAD Clarity Western ECL Substrates (BIO-RAD) and HyBlot CL film (Denville) were used for signal development and detection using a SRX-101A tabletop processor (Konica Minolta).

HBL100 = test: WST-8 cell growth inhibition assay, HBL100; type: cell-based; settings: Homo sapiens, HBL-100; WST-8, Table 6
Description: as §2

MDA-MB-231 = test: CellTiter-Glo cell growth inhibition, MDA-MB-231; type: cell-based; settings: Homo sapiens, MDA-MB-231, 96 h, 4 days, Table 4
How it was run: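 Cells seeded at 2,000 cells/well with serially diluted compound and incubated 4 days at 37 °C, 5% CO2. Viability read by CellTiter-Glo luminescence after 10-20 min at room temperature; IC50 calculated from the dose-response.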

MDA-MB-157 = test: WST-8 cell growth inhibition assay, MDA-MB-157; type: cell-based; settings: Homo sapiens, WST-8, Table 6
Description: as §2

WHIM24 breast cancer PDX = WHIM24 breast cancer PDX model; type: in vivo; settings: FIG. 5
Description: as §1

RS4;11 = test: CellTiter-Glo cell growth inhibition, RS4;11; type: cell-based; settings: Homo sapiens
How it was run: (§3)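 Leukemia cells seeded at 2,000 cells/well with serially diluted compounds, 4 days at 37 °C, 5% CO2. Viability by CellTiter-Glo luminescence after 10-20 min at RT. IC50 calculated from the curves.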

MOLM-13 = test: CellTiter-Glo cell growth inhibition, MOLM-13; type: cell-based; settings: Homo sapiens
How it was run: as §3

AML3 = test: CellTiter-Glo cell viability, AML3 leukemia cell line; type: cell-based; settings: Table 5
Description: (§4) Cell growth inhibitory activity of representative Compounds of the Disclosure was determined using the CellTiter-Glo® Luminescent Cell Viability Assay. Cells were seeded in 384-well white opaque cell culture plates at a density of 2,000 cells/well with serially diluted compounds and incubated at 37° C. in an atmosphere of 95% air and 5% CO2 for 4 days. Cell viability was determined using the CellTiter-Glo® Luminescent Cell Viability Assay Kit (Promega, Madison, Wis.) according to the manufacture's instruction. Briefly, a volume of CellTiter-Glo® Reagent equal to the volume of cell culture medium was added to each well, and then the plates were incubated at room temperature for 10-20 minutes. The luminescent signal was measured using a Tecan Infinite M1000 multimode microplate reader (Tecan, Morrisville, N.C.). The half maximal inhibitory concentration (IC50) was calculated using the GraphPad Prism 5 software (GraphPad Software, La Jolla, Calif.).
(§5) Cpd. Nos. 18 and 19 were tested in various leukemia cell lines using the CellTiter-Glo® Luminescent Cell Viability Assay as described in Example 35.

MV4; 11 = test: CellTiter-Glo cell viability, MV4;11 leukemia cell line; type: cell-based; settings: Homo sapiens, Table 5
Description: as §4, §5

IC50 (MDA-MB-453): 0.25 ± 0.04 nM
degradation of BRD4 protein (Western blot) (BRD4): induce degradation
IC50 (MDA-MB-231): 1500 pM
IC50 (MDA-MB-157): 0.06 ± 0.01 nM
IC50 (RS4;11; RS4-11, 96 h, 4 days, Table 4, read-out: RS-4, 11 IC50): 0.03 nM
IC50 (RS4;11; RS4-11, Table 5, read-out: IC50 (nM) RS4, 11): 0.004 ± 0.001 nM
IC50 (MOLM-13; MOLM-13, 96 h, 4 days, Table 4, read-out: MOLM-13 IC50): 1 nM
IC50 (MOLM-13; MOLM-13, Table 5, read-out: IC50 (nM) MOLM13): 0.5 nM
IC50 (AML3): 0.03 ± 0.006 nM
IC50 (MV4; 11): 0.06 ± 0.006 nM
SMILES: Cc1nnc2n1-c1sc(C#Cc3cnn(CCCC#Cc4cccc5c4CN(C4CCC(=O)NC4=O)C5=O)c3)c(Cc3ccccc3)c1CO[C@H]2C (stereo partly drawn) [Cpd. No. 18, 3-(4-(5-(4-(((S)-3-benzyl-6,9-dimethyl-4H,6H-thieno[2,3-e][1,2,4]triazolo[3,4-c][1,4]oxazepin-2-yl)ethynyl)-1H-pyrazol-1-yl)pent-1-yn-1-yl)-1-oxoisoindolin-2-yl) piperidine-2,6-dione]
tumor regression in RS4;11 xenograph tumors (RS4;11 xenograph tumors): induce tumor regression
IC50 (HBL100): 0.84 ± 0.14 nM
tumor regression in the WHIM24 breast cancer PDX model (WHIM24 breast cancer PDX): induces tumor regression
